1 molecule from ChEMBL document CHEMBL4610097, “Daphnane Diterpenoids from Daphne genkwa Inhibit PI3K/Akt/mTOR Signaling and Induce Cell Cycle Arrest and Apoptosis in Human Colon Cancer Cells” (J Nat Prod, 2020) can be followed below.

In series [1] the test system is SW-620. Description: Induction of apoptosis in human SW620 cells assessed as early apoptotic cells at 0.74 uM after 24 hrs by annexin V/propidium iodide staining-based flow cytometric analysis (reference value: 0.36%). The format is functional. For orientation: In flow cytometry, cells or beads pass a laser one at a time.
Series [2] concerns SW-620. As to the kind of experiment: Induction of cell cycle arrest in human SW620 cells assessed as accumulation at G0/G1 phase at 5.92 uM after 24 hrs by propidium iodide staining-based flow cytometric analysis (reference value: 56.11%). Format: functional.
The test system of series [3] is SW-620. Description: Induction of cell cycle arrest in human SW620 cells assessed as accumulation at S phase at 0.74 uM after 24 hrs by propidium iodide staining-based flow cytometric analysis (reference value: 23.83%). The format is functional.
The test system of series [4] is SW-620. As to the kind of experiment: Induction of morphological changes in human SW620 cells assessed as nuclear condensation at […] to 1.48 uM after 24 hrs by acridine orange/propidium iodide staining based microscopic analysis. Format: functional, cell-based.
Series [5] deals with SW-620. As to the kind of experiment: Induction of cell cycle arrest in human SW620 cells assessed as accumulation at G2/M phase at 0.74 uM after 24 hrs by propidium iodide staining-based flow cytometric analysis (reference value: 20.06%). Format: functional.
The test system of series [6] is SW-620. As to the kind of experiment: Induction of apoptosis in human SW620 cells assessed as necrotic cells at 2.96 uM after 24 hrs by annexin V/propidium iodide staining-based flow cytometric analysis (reference value: 0.30%). Format: functional.
Series [7] has as its system SW-620. Description: Effect on AKT expression in human SW620 cells at 0.74 to 11.84 uM after 24 hrs by Western blot analysis. The format is cell-based. Conditions: sw-620, 24 h. (Immunoblotting shows a protein as a band on a membrane.)
For series [8], the system named is SW-620. Description: Induction of apoptosis in human SW620 cells assessed as necrotic cells at 11.84 uM after 24 hrs by annexin V/propidium iodide staining-based flow cytometric analysis (reference value: 0.30%). The format is functional.
Series [9] concerns SW-620. As to the kind of experiment: Effect on mTOR expression in human SW620 cells at 0.74 to 11.84 uM after 24 hrs by Western blot analysis. The format is cell-based. The settings on record: sw-620, 24 h.
For series [10], the system named is SW-620. As to the kind of experiment: Induction of cell cycle arrest in human SW620 cells assessed as accumulation at G2/M phase at 11.84 uM after 24 hrs by propidium iodide staining-based flow cytometric analysis (reference value: 20.06%). Format: functional.
Series [11] relates to SW-620. Description: Induction of morphological changes in human SW620 cells assessed as appearance of apoptotic bodies at 2.96 to 5.92 uM after 24 hrs by acridine orange/propidium iodide staining based microscopic analysis. The format is functional, cell-based.
Series [12] has as its system SW-620. Description: Induction of apoptosis in human SW620 cells assessed as early apoptotic cells at 2.96 uM after 24 hrs by annexin V/propidium iodide staining-based flow cytometric analysis (reference value: 0.36%). The format is functional.
Series [13] has as its system SW-620. As to the kind of experiment: Induction of apoptosis in human SW620 cells assessed as viable cells at 2.96 uM after 24 hrs by annexin V/propidium iodide staining-based flow cytometric analysis (reference value: 96.9%). The format is functional. The settings on record: SW-620, 24 h, read-out: Activity.
Series [14] concerns SW-620. Description: Induction of apoptosis in human SW620 cells assessed as late apoptotic cells at 1.48 uM after 24 hrs by annexin V/propidium iodide staining-based flow cytometric analysis (reference value: 2.40%). The format is functional.
Series [15] relates to SW-620. As to the kind of experiment: Cytotoxicity against human SW620 cells after 24 hrs by MTT assay. Format: functional, cell-based. The settings on record: SW-620, 24 h. Background: Formazan colour is commonly taken as a measure of viable cells.

Activity calls are given as the source filed them. The rule behind the calls is not given here.

As to `C=C(C)[C@@]12O[C@@]3(/C=C/C=C/CCCCC)O[C@@H]1[C@@H]1[C@H](O)[C@@](O)(CO)[C@@H](O)[C@]4(O)C(=O)C(C)=C[C@H]4[C@@]1(O3)[C@H](C)[C@H]2OC(=O)c1ccccc1`, the Activity in [1] is listed as 3.24%; in series [2], 84.75%; in [3], 14.24%; in series [5], 8.83%; in series [6], 0.33%; in series [7] it was “Non-Toxic”. Besides, the Activity in series [8] is recorded as 1.64%; in series [9], “Non-Toxic”; in series [10], 2.43%; in series [12], 6.18%; in series [14] it was 48.5%. For the same molecule, the result in [4] and in [11] was Active. In series [13], the viability at 2.96 µM was 44.1%. For the same molecule, in series [15], the IC50 is 3000 nM.

What is called IC50 is the concentration at which inhibition is half-maximal.
